Literature values, collected in patent US8568704B2, “Dermatological/pharmaceutical compositions comprising benzoyl peroxide, at least one naphthoic acid compound and at least one polyurethane polymer” (Galderma Research & Development, priority 2006, dated 2013).
Where two headings read alike, the source gives them in different places.

Columns and labels:
[1] = in presence of benzoyl peroxide-based formulation
[2] = 40° C.

SMILES: COc1ccc(-c2ccc3cc(C(=O)O)ccc3c2)cc1C12CC3CC(CC(C3)C1)C2 [adapalene, 6-[3-(1-adamantyl)-4-methoxyphenyl]-2-naphthoic acid]
- degradation of adapalene ([1]; for 24 hours): no degradation

SMILES: O=C(OOC(=O)c1ccccc1)c1ccccc1 [benzoyl peroxide]
- benzoyl peroxide degradation time ([2]; in ethanol): 29 days
- benzoyl peroxide degradation time ([2]; in propylene glycol): 53 days

SMILES: CC1=C(/C=C/C(C)=C/C=C/C(C)=C/C(=O)O)C(C)(C)CCC1 [tretinoin]
- tretinoin degraded ([1]; within 2 hours): 50%
- tretinoin degraded ([1]; within 24 hours): 95%
